Laboratory results as given in the NIST ThermoML archive (doi:10.1021/acs.jced.6b00606).

Experiment: molar heat capacity at constant pressure; xn = mol fraction of the nth substance listed
Details: 100 kPa, Liquid

O=C1CCCCCC1 [cycloheptanone] + C1CCOCC1
molar heat capacity at constant pressure [J/K/mol], Extra sensitive DSC
Details	293.15 K	298.15 K	303.15 K	308.15 K
x2 = 0.1121	196.3	197.43	198.93	200.52
x2 = 0.1652	194.07	195.27	196.82	198.49
x2 = 0.2103	192.18	193.43	195.03	196.74
x2 = 0.2652	189.86	191.15	192.76	194.53
x2 = 0.3187	187.56	188.91	190.53	192.28
x2 = 0.3562	185.92	187.28	188.93	190.71
x2 = 0.4036	183.78	185.22	186.84	188.65
x2 = 0.4562	181.33	182.82	184.44	186.27
x2 = 0.4921	179.6	181.13	182.76	184.65
x2 = 0.5341	177.51	179.07	180.74	182.63
x2 = 0.5896	174.63	176.29	177.96	179.93
x2 = 0.6231	172.8	174.52	176.25	178.18
x2 = 0.6741	169.93	171.69	173.45	175.49
x2 = 0.7256	166.92	168.74	170.53	172.58
x2 = 0.7769	163.72	165.58	167.38	169.46
x2 = 0.8321	160.14	162	163.83	165.92
x2 = 0.8754	157.18	159.06	160.84	162.89
x2 = 0.9365	152.82	154.62	156.31	158.31

O=C1CCCCCC1 [cycloheptanone] + C1COCCO1
molar heat capacity at constant pressure [J/K/mol], Extra sensitive DSC
Details	293.15 K	298.15 K	303.15 K	308.15 K
x2 = 0.0943	199.36	200.68	202.21	203.95
x2 = 0.1587	198.02	199.53	201.25	203.14
x2 = 0.2016	197.04	198.63	200.42	202.4
x2 = 0.2574	195.59	197.23	199.23	201.2
x2 = 0.3025	194.28	196	197.99	200.03
x2 = 0.3412	193.02	194.78	196.83	198.81
x2 = 0.3986	190.94	192.67	194.91	196.9
x2 = 0.4215	189.98	191.84	194.03	196.02
x2 = 0.4796	187.51	189.28	191.5	193.56
x2 = 0.5213	185.45	187.35	189.58	191.52
x2 = 0.5743	182.67	184.52	186.79	188.83
x2 = 0.6142	180.46	182.26	184.49	186.55
x2 = 0.6687	177.12	178.92	181.02	183.16
x2 = 0.7149	174.07	175.86	177.95	180.03
x2 = 0.7623	170.7	172.51	174.5	176.57
x2 = 0.8169	166.69	168.4	170.24	172.25
x2 = 0.8654	162.9	164.56	166.21	168.11
x2 = 0.9149	158.86	160.38	161.87	163.59

O=C1CCCCC1 [cyclohexanone] + C1CCOCC1
molar heat capacity at constant pressure [J/K/mol], Extra sensitive DSC
Details	293.15 K	298.15 K	303.15 K	308.15 K
x2 = 0.0995	176.32	178.62	180.9	183.36
x2 = 0.1452	175.99	178.41	181.03	183.58
x2 = 0.1965	175.76	178.4	181.02	183.49
x2 = 0.2456	175.65	178.24	180.93	183.53
x2 = 0.2863	175.47	178.06	180.64	183.3
x2 = 0.3321	175.13	177.68	180.22	182.87
x2 = 0.3845	174.53	177.03	179.51	182.09
x2 = 0.4215	173.95	176.42	178.92	181.49
x2 = 0.4723	172.86	175.29	177.75	180.31
x2 = 0.5241	171.58	173.99	176.42	178.98
x2 = 0.5796	169.75	172.22	174.56	177.13
x2 = 0.6153	168.49	170.9	173.23	175.87
x2 = 0.6654	166.35	168.77	171.21	173.73
x2 = 0.7132	164.19	166.61	168.92	171.57
x2 = 0.7698	161.26	163.68	165.99	168.56
x2 = 0.8265	158.18	160.54	162.79	165.3
x2 = 0.8732	155.48	157.76	159.9	162.31
x2 = 0.9245	152.46	154.55	156.51	158.75

O=C1CCCCC1 [cyclohexanone] + C1COCCO1
molar heat capacity at constant pressure [J/K/mol]
Details	293.15 K	298.15 K	303.15 K	308.15 K
x2 = 0.0799	173.61	175.65	177.71	179.75
x2 = 0.1351	171.94	173.94	175.96	177.96
x2 = 0.1965	170.17	172.12	174.08	176.03
x2 = 0.2378	169.01	170.93	172.86	174.77
x2 = 0.2874	167.66	169.54	171.43	173.28
x2 = 0.3258	166.66	168.49	170.34	172.17
x2 = 0.3642	165.66	167.46	169.27	171.07
x2 = 0.4195	164.26	166.02	167.78	169.52
x2 = 0.4625	163.21	164.92	166.62	168.33
x2 = 0.5061	162.15	163.82	165.49	167.15
x2 = 0.5543	161.01	162.63	164.25	165.88
x2 = 0.6023	159.9	161.47	163.05	164.62
x2 = 0.6487	158.83	160.36	161.9	163.44
x2 = 0.6946	157.82	159.29	160.78	162.27
x2 = 0.7412	156.79	158.22	159.66	161.12
x2 = 0.7845	155.87	157.25	158.66	160.06
x2 = 0.8398	154.71	156.04	157.39	158.74
x2 = 0.8975	153.56	154.82	156.1	157.39
